Assay results published in patent USRE37078E, “Thiophene compounds” (Adir et Compagnie, priority 1995, dated 2001).

How the values were obtained:
[1] = test system: lipoxygenase pathway (LTB4); experiment: biosynthesis of mediators of the lipoxygenase pathway in vitro on rat polymorphonucleocytes stimulated by ionophore A23187; assay type: cell-based
Text: (§1) Tordjman et al. ("High-performance liquid chromatographic quantitation of cyclooxygenase and lipoxygenase metabolites of arachidonic acid from rat polymorphonuclear leucocytes" Journal of Chromatography, 532, 1990, 135-143).

[2] = test system: cyclooxygenase pathway (PGE2); experiment: biosynthesis of mediators of the cyclooxygenase pathway in vitro on rat polymorphonucleocytes stimulated by ionophore A23187; assay type: cell-based
Text: as §1

mouse = experiment: acute inflammatory pain test in the mouse (Siegmund test, writhing); assay type: in vivo; details: oral administration, read-out: dose causing 50% inhibition of the reactions of the animal
Text: Exp. Ther. 119, 1957, 184).

rat = experiment: polyarthritis auto-immune model in the rat using Freund's adjuvant; assay type: in vivo; details: oral, 5 mg/kg/day, 14th day of the pathology
Procedure: 3) The activity on chronic inflammation was evaluated in a polyarthritis auto-immune model in the rat using Freund's adjuvant in accordance with the protocol described by J. Bonnet et al. ("Bone morphometric changes in adjuvant-induced polyarthritic osteopenia in rats; evidence for an early bone formation defect" J. Bone Miner. Res. 8, 1993, 659-668). By way of example, the compound of Example 1, at an oral dose of 5 mg/kg/day, inhibits by 30% the diffusion of arthritis on the 14th day of the pathology.

**Q.** Which IC50 [1] does the source give for `CCN(O)C(=O)CCc1cc(-c2ccc(OC)cc2)c(-c2ccc(OC)cc2)s1` [Example 22] here?
**A.** 50 nM

**Q.** What about the IC50 [2] of the same molecule?
**A.** 80 nM

**Q.** Which results are given for `COc1ccc(-c2cc(CCC(C)(C)CC(=O)N(C)O)sc2-c2ccc(OC)cc2)cc1` [Example 4]?
**A.** IC50 [1]: 380 nM; IC50 [2]: 750 nM

**Q.** Which IC50 [1] does the source give for `COc1ccc(-c2sc(CCC(C)(C)CC(=O)N(C)O)cc2-c2ccc(F)cc2)cc1` [Example 5] here?
**A.** 250 nM

**Q.** What about the IC50 [2] of the same molecule?
**A.** 2500 nM

**Q.** With `COc1ccc(-c2cc(CCC(C)(C)CC(=O)NO)sc2-c2ccc(OC)cc2)cc1` [Example 3] as the molecule, how does the IC50 [1] read?
**A.** 1000 nM

**Q.** And the IC50 [2]?
**A.** 2500 nM

**Q.** With `COc1ccc(-c2sc(CCCC(=O)N(C)O)cc2-c2ccc(C)cc2)cc1` [Example 16] as the molecule, how does the IC50 [1] read?
**A.** 50 nM

**Q.** What about the IC50 [2] of the same molecule?
**A.** 50 nM

**Q.** Which results are given for `COc1ccc(-c2sc(CCC(=O)N(C)O)cc2-c2ccc(F)cc2)cc1` [Example 2]?
**A.** IC50 [1]: 80 nM; ED50 (mouse): 5 mg/kg; IC50 [2]: 380 nM

**Q.** Which IC50 [1] does the source give for `COc1ccc(-c2cc(CCCC(=O)N(C)O)sc2-c2ccc(OC)cc2)cc1` [Example 6] here?
**A.** 50 nM

**Q.** And the ED50 (mouse)?
**A.** 2.5 mg/kg

**Q.** What about the IC50 [2] of the same molecule?
**A.** 380 nM

**Q.** How did the “inhibition of the diffusion of arthritis” value (rat) turn out when `COc1ccc(-c2cc(CCC(=O)N(C)O)sc2-c2ccc(OC)cc2)cc1` [Example 1, 3-[4,5-bis(4-methoxyphenyl)thien-2-yl]-N-hydroxy-N-methylpropionamide] was run?
**A.** 30%

**Q.** And the IC50 [1]?
**A.** 30 nM

**Q.** And the ED50 (mouse)?
**A.** 1 mg/kg

**Q.** And the IC50 [2]?
**A.** 50 nM
